Data from patent US12708616B2, “Compositions and methods of treating age-related retinal dysfunction” (THE REGENTS OF THE UNIVERSITY OF CALIFORNIA, priority 2020, dated 2026).
“Also recorded” adds a separate entry of the source.

Experiments:
HDAC = settings: with exception for HDAC6; read-out: IC50 pan-HDAC; cited from earlier work
[1] = tested on: Abca4−/−Rdh8−/− (dKO) mice; experiment: SLO and OCT imaging of bright light-induced retinal damage; assay type: in vivo, mouse; settings: 60 mg/kg bw intraperitoneal, 7 d after photobleaching
Excerpt: Male and female Abca4^−/−Rdh8^−/− mice at 6 to 8 weeks of age were used for the current study. These mice were maintained on a pigmented C57BL/6 background, and age-matched C57BL/6 mice from The Jackson Laboratory were used as wild-type controls. All mice were housed and maintained in a 12-hour light (≤150 lux)/12-hour dark cyclic environment in the University Laboratory Animal Resources center at the University of California, Irvine (UCI) School of Medicine. Bright light-induced retinal damage was generated by exposing photosensitive Abca4^−/−Rdh8^−/− mice to white light delivered at 10,000 lux (150-W spiral lamp, Commercial Electric, Cleveland, OH) for 30 min. Mice were dark-adapted 24 h prior to photobleaching, and pupils were dilated with 1% ophthalmic tropicamide 30 min prior to light exposure. […]
Mice were anesthetized by intraperitoneal injection of ketamine (20 mg/mL) with xylazine (1.75 mg/mL) at a dose of 5 μL/g bw, and pupils were dilated with 1% tropicamide prior to imaging. […] For quantitative measurements of photoreceptor viability, ONL thickness was measured in the InVivoVue software at a distance of 0.45 mm from the optic nerve head in the temporal retina, where the most severe damage is found in bright light-exposed Abca4^−/−Rdh8^−/− mice. […]

HDAC4, 5, 6, 7, and 8 = settings: cited from earlier work
H3K27ac = experiment: Quantitative Western blot of H3K27ac (euchromatin) in retina of photobleached dKO mice; assay type: in vivo, mouse; settings: 60 mg/kg bw intraperitoneal 30 min prior to light exposure, 1 d post-bleach
Excerpt: (§1) Male and female Abca4^−/−Rdh8^−/− mice at 6 to 8 weeks of age were used for the current study. These mice were maintained on a pigmented C57BL/6 background, and age-matched C57BL/6 mice from The Jackson Laboratory were used as wild-type controls. All mice were housed and maintained in a 12-hour light (≤150 lux)/12-hour dark cyclic environment in the University Laboratory Animal Resources center at the University of California, Irvine (UCI) School of Medicine. Bright light-induced retinal damage was generated by exposing photosensitive Abca4^−/−Rdh8^−/− mice to white light delivered at 10,000 lux (150-W spiral lamp, Commercial Electric, Cleveland, OH) for 30 min. Mice were dark-adapted 24 h prior to photobleaching, and pupils were dilated with 1% ophthalmic tropicamide 30 min prior to light exposure. […] All animal handling procedures and experimental protocols were approved by the Institutional Animal Care and Use Committee at UCI and conformed to recommendations of both the American Veterinary Medical Association (AVMA) Panel on Euthanasia and the Association for Research in Vision and Ophthalmology.
(§2) Fresh retina and RPE were harvested from study mice as described previously. […] The blots were imaged, and IR signals were quantified using a LI-COR Odyssey Fc imaging system.

H3K9me3 [2] = experiment: Immunohistochemistry of H3K9me3 in retinal cross-sections of photobleached dKO mice; assay type: in vivo, mouse; settings: 60 mg/kg bw intraperitoneal, 1 d after photobleaching, vs DMSO vehicle
Excerpt: as §1
Mice were euthanized in a CO2 chamber prior to enucleation. […] Fluorescence microscopy images were obtained on a Keyence BZ-X810 fluorescent microscope.

H3K9me3 [3] = experiment: Quantitative Western blot of H3K9me3 (heterochromatin) in RPE/choroid of bleached dKO mice; assay type: in vivo, mouse; settings: 60 mg/kg bw intraperitoneal 30 min prior to light exposure, 1 d post-bleach
Excerpt: as §1, §2

HDAC11 = target: T1, HDAC11 (Homo sapiens, UniProt Q96DB2); settings: mammalian HDAC11; cited from earlier work
T1 sequence (Q96DB2 1-347): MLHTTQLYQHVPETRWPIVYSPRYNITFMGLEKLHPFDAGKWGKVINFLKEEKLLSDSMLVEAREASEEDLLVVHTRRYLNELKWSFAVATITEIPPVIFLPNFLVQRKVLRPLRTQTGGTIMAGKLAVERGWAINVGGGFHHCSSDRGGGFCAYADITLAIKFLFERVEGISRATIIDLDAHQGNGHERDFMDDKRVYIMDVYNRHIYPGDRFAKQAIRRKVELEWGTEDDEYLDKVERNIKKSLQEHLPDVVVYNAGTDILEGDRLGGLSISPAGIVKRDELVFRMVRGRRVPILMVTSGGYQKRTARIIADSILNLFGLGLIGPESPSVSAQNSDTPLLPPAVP

other HDACs = settings: cited from earlier work
[4] = tested on: HDAC11 substrate, serine hydroxymethyl transferase 2; settings: cited from earlier work
HDACs 6 and 7 = settings: cited from earlier work
HDACs 2, 4, 10, and 11 = settings: cited from earlier work

## CCCCc1nc2cc(/C=C/C(=O)NO)ccc2n1CCN(CC)CC [Pracinostat]
HDAC
  IC50: 40 to 140 nM

## Nc1ccccc1NC(=O)c1ccc(CNc2nccc(-c3cccnc3)n2)cc1 [Mocetinostat]
[1]
  Stress-induced retinal pathology by SLO and OCT (ONL thickness): sufficient to ameliorate stress-induced retinal pathology; also recorded: ameliorated
HDAC4, 5, 6, 7, and 8
  Activity to HDAC4, 5, 6, 7, and 8: no activity
H3K27ac
  Euchromatin abundance (H3K27ac) in retina: rescues the stress-induced reduction in euchromatin abundance

## COc1cc(OC)c(-c2cn3ccc(N4CC[C@H](NCc5ccncc5)C4)cc3n2)cc1Cl [OTS186935, (S)-1-(2-(5-chloro-2,4-dimethoxyphenyl)imidazo[1,2-a]pyridin-7-yl)-N-(pyridin-4-ylmethyl)pyrrolidin-3-amine]
[1]
  Stress-induced retinal pathology by SLO and OCT (ONL thickness): sufficient to ameliorate stress-induced retinal pathology; also recorded: ameliorated
H3K9me3 [2]
  H3K9me3 signal in retinal cross-sections (immunohistochemistry): attenuated
H3K9me3 [3]
  Heterochromatin abundance (H3K9me3) in RPE/choroid: attenuates the stress-induced increase in heterochromatin abundance

## CCCCCCCCCCCCCCCCNNC(=O)c1cccs1 [SIS17]
HDAC11
  IC50: 830 nM
Other HDACs
  Inhibition of other HDACs: without inhibiting other HDACs
[4]
  Demyristoylation of serine hydroxymethyl transferase 2: inhibits the demyristoylation

## Cn1cc(CNCC2CCN(c3ncc(C(=O)NO)cn3)CC2)c2ccccc21 [Quisinostat]
HDACs 6 and 7
  Potency to HDACs 6 and 7: lowest potency
HDACs 2, 4, 10, and 11
  Potency to HDACs 2, 4, 10, and 11: modest potent
